From patent US20230064324A1, “NEW USES FOR STEVIOL” (SUNTORY HOLDINGS LIMITED, priority 2019, published 2023)
Read-outs that look alike come from different tables or passages of the source.

What was measured:
GRP78 [1] = assay: GRP78 expression in neuronal cells under endoplasmic reticulum stress (RT-PCR); format: cell-based, Rat; conditions: pretreatment 24 h, tunicamycin 1.0 μM 24 h
Description: (§1) Neuronal cells were prepared as follows. PC12 cells were reconstituted by seeding at 2×10^6 cells/flask to a collagen IV-coated flask, and precultured for 3 days in the growth medium in a CO2 incubator.
(§2) The lysate was preserved at −80° C. until use.
(§3) The internal standard gene used was GAPDH gene.

CHOP [2] = assay: CHOP expression in neuronal cells under endoplasmic reticulum stress (RT-PCR); format: cell-based, Rat; conditions: pretreatment 1 h, tunicamycin 0.16 μM 24 h
Description: as §1, §2, §3

GRP78 [3] = conditions: pretreatment 4 h, tunicamycin 0.65 μM 24 h
Description: (§4) Steviol was evaluated for its influence on endoplasmic reticulum stress in each type of cell by using endoplasmic reticulum stress markers CHOP and GRP78 as an index. The test cells used were neuronal cells (induced from PC12 cells), adipocytes (normal human subcutaneous preadipocytes, Cat. No. PT-5020, Lonza Group AG), hepatocytes (HepG2, Cat. No. JCRB1054, JCRB) and pancreatic cells (βTC6, ATCC® CRL-11506).
(§5) Hepatocytes were prepared as follow. HepG2 cells were seeded to a T75 flask and precultured for 1 day in a CO2 incubator using a growth medium (DMEM (high glucose, Cat. No. D5796, Sigma-Aldrich) supplemented with 10% FBS (Cat. No. 172012, Sigma-Aldrich), 1% penicillin-streptomycin (Cat. No. 09367-34, Nacalai Tesque, Inc.)).
(§6) 4PA (P21005, Sigma-Aldrich Co., LLC) was dissolved in a medium and then added at a predetermined concentration to a differentiation medium or a growth medium.
(§7) After the completion of endoplasmic reticulum stress induction treatment, the expression levels of CHOP and GRP78 were measured to evaluate the degree of endoplasmic reticulum stress. First, FasteLane lysate (RNA) was prepared for RNA extraction using FastLane Cell Probe kit (Cat. No. 216413, Qiagen N.V.). After removal of the medium, each well was washed by the addition of 125 μL of Buffer FCW and its immediate removal. Then, 50 μL of Cell processing mix was added to each well, followed by incubation at room temperature for 5 minutes to prepare FasteLane lysate. Next, the FasteLane lysate was transferred to a PCR tube and incubated at 75° C. for 5 minutes. The lysate was preserved at −80° C. until use.
(§8) Gene expression analysis was carried out by the following procedures. One Step real-time RT-PCR was performed with the composition of Table 8 using QuantiTect Probe RT-PCR Kit attached to FastLane Cell Probe kit.
(§9) RT-PCR reaction was performed under conditions of 50° C. for 30 minutes, 95° C. for 15 minutes, and (94° C. for 15 seconds and 60° C. for 60 seconds)×40 cycles. The internal standard gene used was GAPDH gene. A relative expression level was calculated by the ΔΔCt method. Significant difference among tunicamycin addition groups (vehicle group vs positive control group/steviol addition group) was tested by the Dunnett test.

CHOP [4] = conditions: pretreatment 4 h, tunicamycin 0.65 μM 24 h
Description: as §4, §5, §6, §7, §8, §9

GRP78 [5] = assay: GRP78 expression in pancreatic cells (βTC6) under endoplasmic reticulum stress (RT-PCR); format: cell-based, Mouse; conditions: pretreatment 4 h, tunicamycin 0.16 μM 24 h
Description: as §2, §3

GRP78 [6] = assay: GRP78 expression in adipocytes under endoplasmic reticulum stress (RT-PCR); format: cell-based, Human; conditions: pretreatment 24 h, tunicamycin 0.65 μM 24 h
Description: (§10) Adipocytes were prepared as follows. Normal human subcutaneous preadipocytes were reconstituted in a T75 flask using a growth medium (PBM-2 medium, Cat. No. PT-8002, Lonza, supplemented with 10% FBS, 2 mM L-glutamine, 50 μg/mL gentamycin, and 37 ng/mL amphotericin-B), and precultured for 3 days in a CO2 incubator (37° C., 5% CO2; the same holds true for the description below).
as §2, §3

CHOP [7] = assay: CHOP expression in adipocytes under endoplasmic reticulum stress (RT-PCR); format: cell-based, Human; conditions: pretreatment 24 h, tunicamycin 0.65 μM 24 h
Description: as §10, §2, §3

CHOP [8] = assay: CHOP expression in pancreatic cells (βTC6) under endoplasmic reticulum stress (RT-PCR); format: cell-based, Mouse; conditions: pretreatment 4 h, tunicamycin 0.16 μM 24 h
Description: as §2, §3

PC12 cells (clone HS) = assay: Neurite elongation-promoting effect on PC12 cells (neurite length per cell, Operetta CLS); format: cell-based, Rat; conditions: positive control, 50 ng/mL NGF, 3 days, negative control=100%
Description: PC12 cells (clone HS) were precultured using a growth medium in the same manner as in Example 1. […] The cells thus cultured were subjected to cell membrane staining using Cell Membrane Stain attached to Neurite Outgrowth Staining Kit (Thermo Fisher Scientific Inc.) and nuclear staining using Hoechst 33342 (Cat. No. H3570). Specifically, the medium was replaced with 100 μL of a fixative and staining solution (prepared by adding a 1/1000 amount each of Cell Membrane Stain (1000×) and Hoechst 33342 and a 1/25 amount of a formaldehyde solution (Cat. No. 061-00416, FUJIFILM Wako Pure Chemical Corp.) to DPBS (++) (Cat. No. 14040133, Thermo Fisher Scientific Inc.)), followed by incubation for 20 minutes in a CO2 incubator (5% CO2, 37° C., humid). […] Photographing and quantitative analysis were carried out using Operetta CLS (Perkin Elmer, Inc.), and a neurite length per cell was calculated. Nine fields of view at the center of each well were photographed using a 10× objective lens. A test medium supplemented with 50 ng/mL NGF was used as a positive control, and a vehicle control composed of a differentiation medium supplemented with 0.1% DMSO (final concentration) was used as a negative control.

Compound: O=C(O)CCCc1ccccc1 [4PA, reference compound]
- Expression level of GRP78 in neuronal cells (relative to GAPDH, untreated=1) (GRP78 [1]; 4PA 0.1 mM): 19.72
- Expression level of GRP78 in neuronal cells (relative to GAPDH, untreated=1) (GRP78 [1]; 4PA 0.3 mM): 20.05
- Expression level of CHOP in neuronal cells (relative to GAPDH, untreated=1) (CHOP [2]; 4PA 0.1 mM): 6.04
- Expression level of CHOP in neuronal cells (relative to GAPDH, untreated=1) (CHOP [2]; 4PA 0.3 mM): 5.87
- Expression level of GRP78 in hepatocytes (relative to GAPDH, untreated=1) (GRP78 [3]; 4PA 0.1 mM): 2.82
- Expression level of GRP78 in hepatocytes (relative to GAPDH, untreated=1) (GRP78 [3]; 4PA 0.3 mM): 2.49
- Expression level of GRP78 in hepatocytes (relative to GAPDH, untreated=1) (GRP78 [3]; 4PA 1 mM): 1.96
- Expression level of CHOP in hepatocytes (relative to GAPDH, untreated=1) (CHOP [4]; 4PA 0.1 mM): 3.23
- Expression level of CHOP in hepatocytes (relative to GAPDH, untreated=1) (CHOP [4]; 4PA 0.3 mM): 2.79
- Expression level of CHOP in hepatocytes (relative to GAPDH, untreated=1) (CHOP [4]; 4PA 1 mM): 2.13
- Expression level of GRP78 in pancreatic cells (relative to GAPDH, untreated=1) (GRP78 [5]; 4PA 0.3 mM): 2.33
- Expression level of GRP78 in pancreatic cells (relative to GAPDH, untreated=1) (GRP78 [5]; 4PA 1 mM): 2.37
- Expression level of GRP78 in pancreatic cells (relative to GAPDH, untreated=1) (GRP78 [5]; 4PA 3 mM): 1.66
- Expression level of GRP78 in pancreatic cells (relative to GAPDH, untreated=1) (GRP78 [5]; 4PA 10 mM): 1.22
- Expression level of GRP78 in adipocytes (relative to GAPDH, untreated=1) (GRP78 [6]; 4PA 0.1 mM): 4.78
- Expression level of GRP78 in adipocytes (relative to GAPDH, untreated=1) (GRP78 [6]; 4PA 1 mM): 4.25
- Expression level of CHOP in adipocytes (relative to GAPDH, untreated=1) (CHOP [7]; 4PA 0.1 mM): 3.52
- Expression level of CHOP in adipocytes (relative to GAPDH, untreated=1) (CHOP [7]; 4PA 1 mM): 3.22
- Expression level of CHOP in pancreatic cells (relative to GAPDH, untreated=1) (CHOP [8]; 4PA 0.3 mM): 2.53
- Expression level of CHOP in pancreatic cells (relative to GAPDH, untreated=1) (CHOP [8]; 4PA 1 mM): 1.78
- Expression level of CHOP in pancreatic cells (relative to GAPDH, untreated=1) (CHOP [8]; 4PA 3 mM): 1.71
- Expression level of CHOP in pancreatic cells (relative to GAPDH, untreated=1) (CHOP [8]; 4PA 10 mM): 2.47

Compound: IGF-1: positive control, 100 ng/mL IGF-1 (Cat. No. SRP4121, Sigma-Aldrich)
- Expression level of GRP78 in neuronal cells (relative to GAPDH, untreated=1) (GRP78 [1]; IGF-1 100 ng/mL): 19.77
- Expression level of CHOP in neuronal cells (relative to GAPDH, untreated=1) (CHOP [2]; IGF-1 100 ng/mL): 5.97

Compound: NGF: positive control, 50 ng/mL NGF (Cat. No. 13257019, Thermo Fisher Scientific), differentiation inducer
- Relative neurite length (%) (PC12 cells (clone HS)): 269.4%
